Reference: US7691849B2, “Carboxamidine derivatives and their use in the treatment of vascular diseases” (CytRx Corporation, priority 2002, dated 2010)

Tests used:
[1] = system: thoracic aorta of SH rats; assay: Vaso-relaxing effect on the thoracic aorta of SH rats treated for one month (in vitro testing of aorta rings); type: in vivo, rat; settings: aorta rings contracted with 10^-6 M methoxamine
Method: In the following, we give the results of the test of blood vessel relaxing effect, performed in vitro on rat vessels, and also the morpholocial results of the thoracic aorta.
(§1) Three-month-old, genetically hypertonic (SH) Wistar Okamoto rats were treated for one month with various test compounds. Thereafter the functional and morphological tests were performed.
The Vaso-relaxing Effect of the Compounds of the Invention on the Thoracic Aorta of SH Rats (in Vitro Testing)
The test was performed by the method known from the literature [Japan J. Pharmacol., 59, 339-347 (1992)]. The SH rats were anesthetized with Nembutal (40 mg/kg, i. p.), then the thoracic aorta was removed and placed in oxygenized (95% O2+5% CO2) Krebs-Henseleit solution. The composition of the solution (mM): NaCl 118, KCl 4,7, CaCl2 2,52, MgSO4 1,64, NaHCO3 24,88, KH2PO4 1,18, glucose 5,5. The 3-mm-long aorta rings were suspended in a 20 ml organ bath of 37° C. The resting tension was 1 g, which was maintained throughout the equilibration. During the 1 hour equilibration, the medium was changed in every 20 minutes. The vessels were contracted with 10^−6 M methoxamine (approx. 80% of maximal contraction). After reaching the maximal contraction, we tested the vasodilation resulting as the effect of the acetylcholine (Ach) (10^−6-10^−4 M), which informed us about the condition of the endothelium of the vessel wall. The contraction force was measured by an isometric strain gauge (SG-01D, Experimentia Ltd), and was registered on an OH-850 polygraph (Radelkis). At this time again, 5,6-dihydro-5-(1-piperidinyi)-methyl-3-(3-pyridyl)-4H-1,2,4-oxadiazine as described in WO 98/06400 was used as a reference compound.

[2] = system: thoracic aorta of SH rats; assay: Morphological testing of the thoracic aortas with electron microscopy; type: in vivo, rat; set-up: key: 1 was used to refer to cases where no regeneration was observable; 2 refers to weak; 3 to average; 4 to good; 5 to strong regeneration; settings: SH rats treated one month, scale of 1 to 5, electron microscopy of thoracic aorta
Method: as §1
Morphological Testing of the Thoracic Aortas with Electron Microscopy
The test was performed according to the procedure known from the literature (Br. J. of Pharmacol., 1995; 115, 415-420). 1 mm^2 pieces of the aorta wall was cut out of the thoracic aorta of the rats, and were then fixed with 2.5% glutaraldehyde at room temperature for 2 hours. This was followed by a post-fixation with 1% osmium tetroxide for 1 hour. Afterwards, the tissue pieces were dehydrated with ethanol, and embedded in Durcupan ACM. The samples were evaluated qualitatively based on the images recorded on a Hitachi 7100 electron microscope.
On the scale, 1 was used to refer to cases where no regeneration was observable, 2 refers to weak, 3 to average, 4 to good, and 5 to strong regeneration.

[3] = system: human umbilical vein endothelial cells (HUVEC); assay: Wounding migration assay in endothelial cell culture; type: cell-based; settings: wounded HUVEC monolayer, 24 hours after wounding, active agent 10^-6 M
From the text: The following compounds of the Invention are especially preferable: • 1. N-[3-(1-piperidinyl)propoxy]-pyridin-1-oxide-3-carboxamidine • 2. N-[3-(1-piperidinyl)propoxy]-pyridin-1-oxide-3-carboximidoyl chloride • 3. N-[2-hydroxy-3-(1-piperidinyl)propoxy]-N′-n-butyl-pyridin-1-oxide-4-carboxamidine • 4. N-[3-(1-oxido-1-piperidinyl)propoxy]-3-nitro-benzimidoyl-chloride dihydrate • 5. 2-chloro-N-[3-(4-oxido-4-morpholinyl)propoxy]-benzimidoyl chloride • 6. (R,S)-5,6-dihydro-5-[(1-piperidinyl)methyl]-3-(1-oxido-3-pyridyl)-4H-1,2,4-oxadiazine • 7. 5,6-dihydro-5-[(4-benzyl-1-piperidinyl)methyl]-3-(3-pyridyl)-4H-1,2,4-oxadiazine • 8. (R) or (S)-5,6-dihydro-5-[(2-oxo-1-piperidinyl)methyl]-3-(3-pyridyl)-4H-1,2,4-oxadiazine • 9. (+)-5,6-dihydro-5-[(1-piperidlnyl)methyl]-3-(1-oxido-3-pyridyl)4H-1,2,4-oxadiazine • 10. (R) or (S)-5,6-dihydro-5-[(1-oxido-1-piperidinyl)methyl]-3-(1-oxido-3-pyridyl)-4H-1,2,4-oxadiazine • 11. 5.6-dihydro-5-[(4-hydroxy-1-piperidinyl)methyl]-3-(3-pyridyl)-4H-1,2,4-oxadiazine • 12. N-[2-chloro-3-(1-piperidinly)propoxyl]-benzimidoyl chloride hydrochloride • 13. N-[2-hydroxy-3-(1-piperidinyl)propoxy]-pyridin-1-oxide-3-carboxamide • The biological effects of the compounds of the invention were tested by the following experiments: • Wounding migration assay in endothelial cell culture
The effect of the compounds of the invention on the wounded monolayers of human umbilical vein endothelial cells (HUVEC) were studied in a cell culture system (in vitro). After reaching confluence, the HUVEC cells were wounded according to the method of Yamamura et al (J. Surgical Res. 63, 349-354, 1996). The number of migrated cells were registered using computerized image analysis 24 hours after wounding in the absence and presence of the active agents under testing in a concentration of 10^−6 M. The active ingredient described in publication no. WO 98/06400, namely 5,6-dihydro-5-(1-piperidinyl)-methyl-3-(3-pyridyl)-4H-1,2,4-oxadiazine was used as reference compound.

Structure (SMILES)	vessel relaxing effect (vasodilation by acetylcholine) ([1]; Ach 10^-4 M, 20 mg/kg)	vessel relaxing effect (vasodilation by acetylcholine) ([1]; Ach 10^-5 M, 20 mg/kg)	vessel relaxing effect (vasodilation by acetylcholine) ([1]; Ach 10^-6 M, 20 mg/kg)	number of migrated cells [3] [cell/mm^2]	Degree of regeneration ([2]; 20 mg/kg p.o.)	also measured
O=C1CCCCN1CC1CON=C(c2cccnc2)N1 (single isomer, unassigned) [Compound 8, (R) or (S)-5,6-dihydro-5-[(2-oxo-1-piperidinyl)methyl]-3-(3-pyridyl)-4H-1,2,4-oxadiazine]	89.2	88.0	80.3	48	–	Degree of regeneration ([2]; 5 mg/kg p.o.): 5
[O-][n+]1cccc(C2=NOCC(CN3CCCCC3)N2)c1 (single isomer, unassigned; (+)) [Compound 9, (+)-5,6-dihydro-5-[(1-piperidinyl)methyl]-3-(1-oxido-3-pyridyl)-4H-1,2,4-oxadiazine]	–	–	–	52	–	vessel relaxing effect (vasodilation by acetylcholine) ([1]; Ach 10^-4 M, 5 mg/kg): 93.2; vessel relaxing effect (vasodilation by acetylcholine) ([1]; Ach 10^-5 M, 5 mg/kg): 87.9; vessel relaxing effect (vasodilation by acetylcholine) ([1]; Ach 10^-6 M, 5 mg/kg): 87.0; Degree of regeneration ([2]; 5 mg/kg p.o.): 5
O.O.O=[N+]([O-])c1cccc(C(Cl)=NOCCC[N+]2([O-])CCCCC2)c1 [Compound 4, N-[3-(1-oxido-1-piperidinyl)propoxy]-3-nitro-benzimidoyl-chloride dihydrate]	–	–	–	45	5	vessel relaxing effect (vasodilation by acetylcholine) ([1]; Ach 10^-4 M, 5 mg/kg): 88.1; vessel relaxing effect (vasodilation by acetylcholine) ([1]; Ach 10^-5 M, 5 mg/kg): 84.9; vessel relaxing effect (vasodilation by acetylcholine) ([1]; Ach 10^-6 M, 5 mg/kg): 82.5
OC1CCN(CC2CON=C(c3cccnc3)N2)CC1 (stereo not shown) [Compound 11, 5.6-dihydro-5-[(4-hydroxy-1-piperidinyl)methyl]-3-(3-pyridyl)-4H-1,2,4-oxadiazine]	–	–	–	51	–	vessel relaxing effect (vasodilation by acetylcholine) ([1]; Ach 10^-4 M, 10 mg/kg): 86.0; vessel relaxing effect (vasodilation by acetylcholine) ([1]; Ach 10^-5 M, 10 mg/kg): 85.1; vessel relaxing effect (vasodilation by acetylcholine) ([1]; Ach 10^-6 M, 10 mg/kg): 79.7; Degree of regeneration ([2]; 10 mg/kg p.o.): 4
Cl.ClC(=NOCC(Cl)CN1CCCCC1)c1ccccc1 (stereo not shown) [Compound 12, N-[2-chloro-3-(1-piperidinly)propoxyl]-benzimidoyl chloride hydrochloride]	80.4	83.5	82.3	60	3	–
O=C(NOCC(O)CN1CCCCC1)c1ccc[n+]([O-])c1 (stereo not shown) [Compound 13, N-[2-hydroxy-3-(1-piperidinyl)propoxy]-pyridin-1-oxide-3-carboxamide]	–	–	–	54	4	vessel relaxing effect (vasodilation by acetylcholine) ([1]; Ach 10^-4 M, dose not given): 95.2; vessel relaxing effect (vasodilation by acetylcholine) ([1]; Ach 10^-5 M, dose not given): 90.3; vessel relaxing effect (vasodilation by acetylcholine) ([1]; Ach 10^-6 M, dose not given): 88.4
c1cncc(C2=NOCC(CN3CCCCC3)N2)c1 (stereo not shown) [Reference, 5,6-dihydro-5-(1-piperidinyl)-methyl-3-(3-pyridyl)-4H-1,2,4-oxadiazine, reference compound]	81.7	80.2	77.4	30	–	–
